The values below come from patent US9447044B2, “Thioaryl derivatives as GPR120 agonists” (LG LIFE SCIENCES LTD., priority 2012, dated 2016).

Where only a bound is given, the exact number is not on record here.

The target in one assay is T1, hGPR120 (Homo sapiens, UniProt Q5NUL3).
T1 construct: expressed in transfected cells; host or cells: CHO-K1
T1 sequence (Q5NUL3 1-361): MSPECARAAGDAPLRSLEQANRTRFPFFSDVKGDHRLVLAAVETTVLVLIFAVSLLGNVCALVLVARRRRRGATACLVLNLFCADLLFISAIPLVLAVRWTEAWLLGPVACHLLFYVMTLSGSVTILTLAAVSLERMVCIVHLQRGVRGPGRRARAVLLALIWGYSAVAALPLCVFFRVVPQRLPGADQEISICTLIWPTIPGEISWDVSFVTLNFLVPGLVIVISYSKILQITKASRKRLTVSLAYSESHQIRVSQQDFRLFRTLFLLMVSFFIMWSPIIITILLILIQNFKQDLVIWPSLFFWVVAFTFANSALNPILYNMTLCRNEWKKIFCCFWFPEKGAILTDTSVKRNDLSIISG
The experiment in a line: Measurement of activity of GPR120 agonist (cell-based assay), calcium fluorescence. Conditions: CHO-K1 cells expressing Ga16 and hGPR120; Calcium 5 dye fluorescence; activity class. How it is done: CHO-K1 cells expressing Ga16 and hGPR120 were dispensed into each well of a 96-well plate (3×10^4 cells/100 μl/well) and then incubated in 5% CO2, 37° C. incubator for 18 hours. Each well was treated with 100 μl of Calcium 5 dye (Molecular Devices) solution including 2% DMSO and then incubated in 5% CO2, 37° C. incubator for 1 hour. Serially diluted GPR120 agonists were prepared to a final concentration of 0.5% DMSO in a 96-well plate. Each well was treated with 50 μl of the agonist compounds using Plexstation II, and then fluorescence was measured at Ex 485 nm, Em 525 nm.
Fluorescence increased by the serially diluted GPR120 agonists is calculated as a relative percent (%) value based on the fluorescence represented by the treatment of 0.1% DMSO only. […] The calculation of measurement was carried out by using statistical software (Prizm).
Activity is denoted based on the following criteria: A=>20 μM, B=[…], C=2˜0.2 μM, D=<0.2 μM
As to `CC(C)Sc1cccc(COc2ccc(CC(C)C(=O)O)cc2F)n1` (centres unmarked) [Example 52, 3-[3-fluoro-4-(6-isopropylsulfanyl-pyridin-2-ylmethoxy)-phenyl]-2-methyl-propionic acid], the concentration for a half-maximal effect (EC50) was below 0.2 µM.

For `CCC(C)Sc1cccc(COc2ccc(CC(C)C(=O)O)cc2F)n1` (centres unmarked) [Example 53, 3-[4-(6-sec-butylsulfanyl-pyridin-2-ylmethoxy)-3-fluoro-phenyl]-2-methyl-propionic acid], the EC50 was in the range of 0.2 to 2 µM.

Turning to `CC(Cc1ccc(OCc2cccc(SC3CCCC3)n2)c(F)c1)C(=O)O` (centres unmarked) [Example 54, 3-[4-(6-cyclopentylsulfanyl-pyridin-2-ylmethoxy)-3-fluoro-phenyl]-2-methyl-propionic acid], the EC50 was below 0.2 µM.

As to `CC(Cc1ccc(OCc2cccc(SC3CCC3)n2)c(F)c1)C(=O)O` (centres unmarked) [Example 55, 3-[4-(6-cyclobutylsulfanyl-pyridin-2-ylmethoxy)-3-fluoro-phenyl]-2-methyl-propionic acid], the concentration giving a half-maximal response (EC50) was below 0.2 µM.

On to `CC(Cc1cc(F)c(OCc2cccnc2SC2CCC2)c(F)c1)C(=O)O` (centres unmarked) [Example 56, 3-[4-(2-cyclobutylsulfanyl-pyridin-3-ylmethoxy)-3,5-difluoro-phenyl]-2-methyl-propionic acid], for which the EC50 is below 0.2 µM.

In the case of `COc1cc(CCC(=O)O)ccc1OCc1cccnc1SC1CCCC1` [Example 58, 3-[4-(2-cyclopentylsulfanyl-pyridin-3-ylmethoxy)-3-methoxy-phenyl]-propionic acid], the half-maximal effective concentration (EC50) is below 0.2 µM.

As to `CC(C)Sc1ncccc1COc1ccc2c(c1)OCC2CC(=O)O` (centres unmarked) [Example 59, [6-(2-isopropylsulfanyl-pyridin-3-ylmethoxy)-2,3-dihydro-benzofuran-3-yl]-acetic acid], the concentration giving a half-maximal response (EC50) is 0.2 to 2 µM.

For `CC(C)Sc1ncccc1COc1ccc(CC(C)C(=O)O)cc1F` (centres unmarked) [Example 60, 3-[3-fluoro-4-(2-isopropylsulfanyl-pyridin-3-ylmethoxy)-phenyl]-2-methyl-propionic acid], the EC50 is below 0.2 µM.

In the case of `CCCCSc1ncccc1COc1ccc(CC(C)C(=O)O)cc1F` (centres unmarked) [Example 61, 3-[4-(2-butylsulfanyl-pyridin-3-ylmethoxy)-3-fluoro-phenyl]-2-methyl-propionic acid], the EC50 was below 0.2 µM.

Take `O=C(O)C1CC1c1cc(F)c(OCc2cccnc2SC2CCCC2)c(F)c1` (centres unmarked) [Example 62, 2-[4-(2-cyclopentylsulfanyl-pyridin-3-ylmethoxy)-3,5-difluoro-phenyl]-cyclopropane carboxylic acid]: the EC50 was below 0.2 µM.

`O=C(O)C1CC1c1cc(F)c(OCc2cccnc2SCC2CC2)c(F)c1` (centres unmarked) [Example 63, 2-[4-(2-cyclopropylmethylsulfanyl-pyridin-3-ylmethoxy)-3,5-difluoro-phenyl]-cyclopropane carboxylic acid]: the EC50 was below 0.2 µM.

`CC(C)Sc1ncccc1COc1c(F)cc(C2CC2C(=O)O)cc1F` (centres unmarked) [Example 65, 2-[3,5-difluoro-4-(2-isopropylsulfanyl-pyridin-3-ylmethoxy)-phenyl]-cyclopropane carboxylic acid]: the EC50 is below 0.2 µM.

With `CCCCSc1ncccc1COc1c(F)cc(C2CC2C(=O)O)cc1F` (centres unmarked) [Example 66, 2-[4-(2-butylsulfanyl-pyridin-3-ylmethoxy)-3,5-difluoro-phenyl]-cyclopropane carboxylic acid], the half-maximal effective concentration (EC50) was below 0.2 µM.

On to `CC(C)Sc1cccc(COc2ccc3c(c2)OCC3CC(=O)O)n1` (centres unmarked) [Example 67, [6-(6-isopropylsulfanyl-pyridin-2-ylmethoxy)-2,3-dihydro-benzofuran-3-yl]-acetic acid], for which the EC50 lay within 0.2 to 2 µM.

For `O=C(O)CC1COc2cc(OCc3cccc(SC4CCCC4)n3)ccc21` (centres unmarked) [Example 68, [6-(6-cyclopentylsulfanyl-pyridin-2-ylmethoxy)-2,3-dihydro-benzofuran-3-yl]-acetic acid], the EC50 was in the range of 0.2 to 2 µM.

As for `CC(C)Sc1ncccc1COc1ccc(CC(C)(C)C(=O)O)cc1` [Example 69, 3-[4-(2-isopropylsulfanyl-pyridin-3-ylmethoxy)-phenyl]-2,2-dimethyl-propionic acid], the EC50 fell in the range of 0.2 to 2 µM.

As to `Cc1ncc(COc2c(F)cc(CCC(=O)O)cc2F)c(SC(C)C)n1` [Example 71, 3-[3,5-difluoro-4-(4-isopropylsulfanyl-2-methyl-pyrimidin-5-ylmethoxy)-phenyl]-prop ionic acid], the EC50 lay in the range of 0.2 to 2 µM.

For the molecule `COc1cc(CCC(=O)O)ccc1OCc1cccc(SC(C)C)n1` [Example 72, 3-[4-(6-isopropylsulfanyl-pyridin-2-ylmethoxy)-3-methoxy-phenyl]-propionic acid], the half-maximal effective concentration (EC50) was below 0.2 µM.

`COc1cc(CCC(=O)O)ccc1OCc1cccc(SC2CCCC2)n1` [Example 73, 3-[4-(6-cyclopentylsulfanyl-pyridin-2-ylmethoxy)-3-methoxy-phenyl]-propionic acid]: the EC50 was 0.2 to 2 µM.

On to `O=C(O)CC1COc2cc(OCc3cccnc3SC3CCCC3)ccc21` (centres unmarked) [Example 74, [6-(2-cyclopentylsulfanyl-pyridin-3-ylmethoxy)-2,3-dihydro-benzofuran-3-yl]-acetic acid], for which the EC50 was below 0.2 µM.

Regarding `O=C(O)C1CC1c1cc(F)c(OCc2cccc(SC3CCC3)n2)c(F)c1` (centres unmarked) [Example 75, 2-[4-(6-cyclobutylsulfanyl-pyridin-2-ylmethoxy)-3,5-difluoro-phenyl]-cyclopropane carboxylic acid], the EC50 was below 0.2 µM.

With `COc1ccc(COc2c(F)cc(CCC(=O)O)cc2F)c(SC2CCCC2)n1` [Example 76, 3-[4-(2-cyclopentylsulfanyl-6-methoxy-pyridin-3-ylmethoxy)-3,5-difluoro-phenyl]-propionic acid], the EC50 lay in the range of 0.2 to 2 µM.

For `CC(C)Sc1ncccc1COc1ccc(CCC(=O)O)cc1Cl` [Example 77, 3-[3-chloro-4-(2-isopropylsulfanyl-pyridin-3-ylmethoxy)-phenyl]-propionic acid], the EC50 was below 0.2 µM.

In the case of `O=C(O)CCc1ccc(OCc2cccnc2SC2CCCC2)c(Cl)c1` [Example 78, 3-[3-chloro-4-(2-cyclopentylsulfanyl-pyridin-3-ylmethoxy)-phenyl]-propionic acid], the 50% effective concentration (EC50) was below 0.2 µM.

`Cc1c(CCC(=O)O)ccc(OCc2cccnc2SC2CCCC2)c1C` [Example 80, 3-[4-(2-cyclopentylsulfanyl-pyridin-3-ylmethoxy)-2,3-dimethyl-phenyl]-propionic acid]: the EC50 is below 0.2 µM.

For `O=C(O)C[C@@H]1COc2cc(OCc3cccnc3SC3CCCC3)ccc21` [Example 81, [(S)-6-(2-cyclopentylsulfanyl-pyridin-3-ylmethoxy)-2,3-dihydro-benzofuran-3-yl]-acetic acid], the EC50 was below 0.2 µM.

Consider `O=C(O)C[C@H]1COc2cc(OCc3cccnc3SC3CCCC3)ccc21` [Example 82, [(R)-6-(2-cyclopentylsulfanyl-pyridin-3-ylmethoxy)-2,3-dihydro-benzofuran-3-yl]-acetic acid], for which the EC50 is below 0.2 µM.

As for `O=C(O)C1CC1c1ccc(OCc2cccnc2SCC2CC2)c(F)c1` (centres unmarked) [Example 84, 2-[4-(2-cyclopropylmethylsulfanyl-pyridin-3-ylmethoxy)-3-fluoro-phenyl]-cyclopropane carboxylic acid], the EC50 was below 0.2 µM.

In the case of `O=C(O)C1CC1c1ccc(OCc2cccc(SC3CCCC3)n2)c(F)c1` (centres unmarked) [Example 85, 2-[4-(6-cyclopentylsulfanyl-pyridin-2-ylmethoxy)-3-fluoro-phenyl]-cyclopropane carboxylic acid], the concentration giving a half-maximal response (EC50) was below 0.2 µM.

As to `O=C(O)C1CC1c1ccc(OCc2cccc(SC3CCC3)n2)c(F)c1` (centres unmarked) [Example 86, 2-[4-(6-cyclobutylsulfanyl-pyridin-2-ylmethoxy)-3-fluoro-phenyl]-cyclopropane carboxylic acid], the EC50 was below 0.2 µM.

Still in this assay, the particulars now being: CHO-K1 cells expressing Ga16 and hGPR120; Calcium 5 dye fluorescence; numeric value.
As for `COc1cc(CCC(=O)O)ccc1OCc1cccnc1SC(C)C` [Example 57, 3-[4-(2-isopropylsulfanyl-pyridin-3-ylmethoxy)-3-methoxy-phenyl]-propionic acid], the EC50 worked out at 0.454 µM.

For `CC(C)Sc1cccc(COc2c(F)cc(C3CC3C(=O)O)cc2F)n1` (centres unmarked) [Example 64, 2-[3,5-difluoro-4-(6-isopropylsulfanyl-pyridin-2-ylmethoxy)-phenyl]-cyclopropane carboxylic acid], the EC50 was 0.108 µM.

`CC(C)Sc1cccc(COc2ccc(CC(C)(C)C(=O)O)cc2)n1` [Example 70, 3-[4-(6-isopropylsulfanyl-pyridin-2-ylmethoxy)-phenyl]-2,2-dimethyl-propionic acid]: the EC50 came out at 1.88 µM.

Regarding `Cc1c(CCC(=O)O)ccc(OCc2cccnc2SC(C)C)c1C` [Example 79, 3-[4-(2-isopropylsulfanyl-pyridin-3-ylmethoxy)-2,3-dimethyl-phenyl]-propionic acid], the 50% effective concentration (EC50) was determined as 0.033 µM.

Take `CC(C)Sc1ncccc1COc1ccc(C2CC2C(=O)O)cc1F` (centres unmarked) [Example 83, 2-[3-fluoro-4-(2-isopropylsulfanyl-pyridin-3-ylmethoxy)-phenyl]-cyclopropane carboxylic acid]: the EC50 amounted to 0.11 µM.
